Source: patent publication US20260174786A1, “A NITROGEN-CONTAINING SPIROCYCLIC COMPOUND, PHARMACEUTICAL COMPOSITION AND USE THEREOF” (Prime Gene Therapeutics Co., Ltd., priority 2022, published 2026)

molecular target: T1, hTRPV3 (Homo sapiens, UniProt Q8NET8); assay: Whole cell patch clamp inhibition rate test on HEK-293 cells instantaneously expressing TRPV3; assay type: cell-based; conditions: HEK293; hTRPV3, single concentration 0.3 μM
T1 construct: expressed in transfected cells; host or cells: HEK-293
T1 sequence (Q8NET8 1-790): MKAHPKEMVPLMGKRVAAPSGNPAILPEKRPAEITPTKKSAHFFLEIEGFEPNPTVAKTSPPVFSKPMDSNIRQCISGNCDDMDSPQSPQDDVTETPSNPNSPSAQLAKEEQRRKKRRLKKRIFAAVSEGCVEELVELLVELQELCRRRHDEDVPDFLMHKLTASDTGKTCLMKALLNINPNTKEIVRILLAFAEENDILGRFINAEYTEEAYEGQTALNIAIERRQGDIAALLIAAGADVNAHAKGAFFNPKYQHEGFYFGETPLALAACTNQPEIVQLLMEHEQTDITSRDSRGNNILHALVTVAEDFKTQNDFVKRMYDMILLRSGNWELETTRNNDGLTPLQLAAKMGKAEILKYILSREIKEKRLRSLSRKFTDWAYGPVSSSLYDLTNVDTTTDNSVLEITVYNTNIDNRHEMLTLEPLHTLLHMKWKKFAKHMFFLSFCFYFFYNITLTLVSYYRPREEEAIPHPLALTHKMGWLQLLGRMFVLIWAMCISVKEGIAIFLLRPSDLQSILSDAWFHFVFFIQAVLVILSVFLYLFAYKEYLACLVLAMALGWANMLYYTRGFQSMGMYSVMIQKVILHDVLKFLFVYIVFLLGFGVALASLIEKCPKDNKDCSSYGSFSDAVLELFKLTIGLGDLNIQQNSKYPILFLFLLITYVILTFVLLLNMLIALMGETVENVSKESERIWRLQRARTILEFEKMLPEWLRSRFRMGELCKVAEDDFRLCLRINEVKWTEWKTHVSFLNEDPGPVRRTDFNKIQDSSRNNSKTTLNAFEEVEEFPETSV
Protocol: In this study, HEK-293 cells instantaneously expressing TRPV3 were used for experimental detection.
The operation steps are as follows:
The cells were cultured in DMEM medium containing 10% fetal bovine serum at a temperature of 37° C. and a carbon dioxide concentration of 5%.
Day 1: Cells were inoculated into a 6-well plate with 5×10^5 cells per well.
Day 2: Transfection was performed using Lipofectamine 3000 transfection reagent, with a plasmid to transfection reagent ratio of 1 μg: 2 μL. The total amount of plasmid used per well was 3 μg. Specifically, two sterile centrifuge tubes were taken and 100 μL Opti-MEM was added to each tube. 6 μL Lipofectamine 3000 was added to one tube and mixed well; and 3 μg plasmid was added to another tube and mixed well, and then 6 μL P3000 was added and mixed well; Subsequently, the diluted plasmid DNA was added to diluted Lipofectamine 3000 and incubated at room temperature for 10-15 min. DNA liposome complex was dropped into the cells, shaked gently and mixed well, and then cultured in an incubator. The liquid was changed after 4 to 6 h.
Day 3: The cells were digested and seeded into 24 well plates with pre-placed cover slides, with 8×10^3 cells per well.
Day 4: Patch clamp testing was performed.
The voltage stimulation protocol for recording TRPV3 current using whole cell patch clamp is as follows: after forming a whole cell seal, a cell membrane voltage clamp was set at −80 mV. Firstly, a membrane potential was recorded at 0 mV, and then a voltage was command to start from −100 mV, to depolarize in the form of Ramp to 100 mV within 100 ms, and finally restore to 0 mV. Data collection was repeated every 5 seconds to observe the inhibitory effect of pharmaceutical on peak current. Experimental data was collected by EPC 10 amplifier (HEKA) and stored in PatchMaster (HEKA) software.
A microelectrode puller was used to pull the capillary glass tube into a recording electrode. The electrode filled with intracellular fluid was inserted into a microelectrode holder, and a microelectrode manipulator was operated under an inverted microscope to immerse the electrode in extracellular fluid and an electrode resistance (Rpip) was recorded. The electrode was brought into contact with the cell surface and a negative pressure suction was applied to form a high resistance seal (GΩ). At this point, a fast capacitance compensation was performed, and negative pressure was continued to apply in order to break the cell membrane, so that a whole cell recording mode was formed. Then, a slow capacitance compensation was performed and experimental parameters such as film capacitance (Cm) and series resistance (Rs) were recorded. No leakage compensation was provided.
When the TRPV3 current recorded by the whole cell had stabilized, administration was started. Each pharmaceutical concentration acted for 5 minutes (or until the current stabilized) before detecting the next concentration. A plurality of concentrations was tested for each test compound. A cover glass covered with cells was placed in a recording bath under an inverted microscope. A blank control extracellular solution and a working fluid for the compound to be tested sequentially flowed through the recording bath from low concentration to high concentration using gravity perfusion to act on the cells. Liquid exchange was performed using a peristaltic pump during recording. The current detected by each cell in the extracellular fluid without the compound served as its own control group. Each concentration was independently tested twice using at least two cells. All electrophysiological tests were conducted at room temperature.

SMILES	inhibition at 0.3 µM
O=C(c1ccc(F)cn1)N1CCC2(CCC(O)c3cc(-c4ccccc4C4CC4)ccc32)C1 (centres unmarked) [Example 1, (6-(2-Cyclopropylphenyl)-4-hydroxy-3,4-dihydro-2H-spiro[naphthalene-1,3′-pyrrolidine]-1′-yl) (5-fluoropyridin-2-yl) ketone]	< 25%
O=C(c1ccc(Cl)cn1)N1CCC2(CCC(O)c3cc(-c4ccccc4C4CC4)ccc32)C1 (centres unmarked) [Example 2, (5-chloropyridin-2-yl)(6-(2-cyclopropylphenyl)-4-hydroxy-3,4-dihydro-2H-spiro[naphthalene-1,3′-pyrrolidine]-1′-yl) ketone]	< 25%
O=C(c1ccc(F)cn1)N1CCC2(CC1)CC(O)c1cc(-c3ccccc3C3CC3)ccc12 (centres unmarked) [Example 3, (5-(2-cyclopropylphenyl)-3-hydroxy-2,3-dihydrospiro[indene-1,4′-piperidine]-1′-yl)(5-fluoropyridin-2-yl) ketone]	25 to 50%
CC(C)c1ccccc1-c1ccc2c(c1)C(O)CC21CCN(C(=O)c2ccc(F)cn2)CC1 (centres unmarked) [Example 4, (5-fluoropyridin-2-yl)(3-hydroxy-5-(2-isopropylphenyl)-2,3-dihydrospiro[indene-1,4′-piperidine]-1′-yl) ketone]	25 to 50%
CC1(O)CC2(CCN(C(=O)c3ccc(F)cn3)C2)c2ccc(-c3ccccc3C3CC3)cc21 (centres unmarked) [Example 5, (5-(2-cyclopropylphenyl)-3-hydroxy-3-methyl-2,3-dihydrospiro[indene-1,3′-pyrrolidine]-1′-yl)(5-fluoropyridin-2-yl) ketone]	< 25%
O=C(c1ccc(F)cn1)N1CCC2(C1)CC(O)(C(F)(F)F)c1cc(-c3ccccc3C3CC3)ccc12 (centres unmarked) [Example 7, (5-(2-cyclopropylphenyl)-3-hydroxy-3-(trifluoromethyl)-2,3-dihydrospiro[indene-1,3′-pyrrolidine]-1′-yl)(5-fluoropyridin-2-yl) ketone]	< 25%
O=C(c1ccc(F)cn1)N1CCC2(C1)OB(O)c1ccccc12 (centres unmarked) [Example 8, (5-fluoropyridin-2-yl) (1-hydroxy-1H-spiro[benzo[c][1,2]oxaborolane-3,3′-pyrrolidine]-1′-yl) ketone]	< 25%
O=C(c1ccc(F)cn1)N1CCC2(C1)OB(O)c1cc(-c3ccccc3C3CC3)ccc12 (centres unmarked) [Example 9, (6-(2-cyclopropylphenyl)-1-hydroxy-1H-spiro[benzo[c][1,2]oxaborolane-3,3′-pyrrolidine]-1′-yl)(5-fluoropyridin-2-yl) ketone]	25 to 50%
O=C(c1ccc(Cl)cn1)N1CCC2(C1)OB(O)c1cc(-c3ccccc3C3CC3)ccc12 (centres unmarked) [Example 10, (5-chloropyridin-2-yl)(6-(2-cyclopropylphenyl)-1-hydroxy-1H-spiro[benzo[c][1,2]oxaborolane-3,3′-pyrrolidine]-1′-yl) ketone]	25 to 50%
[2H]C1(O)CC2(CN(C(=O)c3ccc(F)cn3)C([2H])([2H])C2)c2ccc(-c3ccccc3C3CC3)cc21 (centres unmarked) [Example 11, (5-(2-cyclopropylphenyl)-3-hydroxy-2,3-dihydrospiro[indene-1,3′-pyrrolidine]-1′-yl-3,5′,5′-d3)(5-fluoropyridin-2-yl) ketone]	70 to 100%
[2H]C1(O)CC2(CCN(C(=O)c3ccc(F)cn3)C2)c2ccc(-c3ccccc3C3CC3)cc21 (centres unmarked) [Example 12, (5-(2-cyclopropylphenyl)-3-hydroxy-2,3-dihydrospiro[indene-1,3′-pyrrolidine]-1′-yl-3-d)(5-fluoropyridin-2-yl) ketone]	70 to 100%
Cc1nc(C(=O)N2CCC3(CC(O)c4cc(-c5ccccc5C5CC5)ccc43)C2)ccc1O (centres unmarked) [Example 13, (5-(2-cyclopropylphenyl)-3-hydroxy-2,3-dihydrospiro[indene-1,3′-pyrrolidine]-1′-yl)(5-hydroxy-6-methylpyridin-2-yl) ketone]	< 25%
O=C(c1ccc(Cl)cn1)N1CCC2(CC(O)c3cc(-c4ccccc4C4CC4)ccc32)C1 (centres unmarked) [Example 14, (5-chloropyridin-2-yl)(5-(2-cyclopropylphenyl)-3-hydroxy-2,3-dihydrospiro[indene-1,3′-pyrrolidine]-1′-yl) ketone]	70 to 100%
CC(C)c1ccccc1-c1ccc2c(c1)C(O)CC21CCN(C(=O)c2ccc(F)cn2)C1 (centres unmarked) [Example 16, (5-fluoropyridin-2-yl)(3-hydroxy-5-(2-isopropylphenyl)-2,3-dihydrospiro[indene-1,3′-pyrrolidine]-1′-yl) ketone]	70 to 100%
O=C(c1csc(Cl)n1)N1CCC2(CC(O)c3cc(-c4ccccc4C4CC4)ccc32)C1 (centres unmarked) [Example 17, (2-chlorothiazol-4-yl)(5-(2-cyclopropylphenyl)-3-hydroxy-2,3-dihydrospiro[indene-1,3′-pyrrolidine]-1′-yl) ketone]	70 to 100%
CC(C)c1ccccc1-c1ccc2c(c1)C(O)CC21CCN(C(=O)c2csc(Cl)n2)C1 (centres unmarked) [Example 18, (2-chlorothiazol-4-yl)(3-hydroxy-5-(2-isopropylphenyl)-2,3-dihydrospiro[indene-1,3′-pyrrolidine]-1′-yl) ketone]	70 to 100%
O=C(c1cccc(C2CC2)n1)N1CCC2(CC(O)c3cc(-c4ccccc4C4CC4)ccc32)C1 (centres unmarked) [Example 19, (5-(2-cyclopropylphenyl)-3-hydroxy-2,3-dihydrospiro[indene-1,3′-pyrrolidine]-1′-yl)(6-cyclopropylpyridin-2-yl) ketone]	70 to 100%
CC(C)c1ccccc1-c1ccc2c(c1)C(O)CC21CCN(C(=O)c2cccc(C3CC3)n2)C1 (centres unmarked) [Example 20, (6-cyclopropylpyridin-2-yl)(3-hydroxy-5-(2-isopropylphenyl)-2,3-dihydrospiro[indene-1,3′-pyrrolidine]-1′-yl) ketone]	70 to 100%
O=C(c1ccc(F)cn1)N1CC[C@]2(C[C@@H](O)c3cc(-c4ccccc4C4CC4)ccc32)C1 [Example 22, ((1R,3R)-5-(2-cyclopropylphenyl)-3-hydroxy-2,3-dihydrospiro[indene-1,3′-pyrrolidine]-1′-yl)(5-fluoropyridin-2-yl)ketone]	< 25%
O=C(c1ccc(F)cn1)N1CC[C@]2(C[C@H](O)c3cc(-c4ccccc4C4CC4)ccc32)C1 [Example 23, ((1R,3S)-5-(2-cyclopropylphenyl)-3-hydroxy-2,3-dihydrospiro[indene-1,3′-pyrrolidine]-1′-yl)(5-fluoropyridin-2-yl)ketone]	< 25%
O=C(c1ccc(F)cn1)N1CC[C@@]2(C[C@H](O)c3cc(-c4ccccc4C4CC4)ccc32)C1 [Example 24, ((1S,3S)-5-(2-cyclopropylphenyl)-3-hydroxy-2,3-dihydrospiro[indene-1,3′-pyrrolidine]-1′-yl)(5-fluoropyridin-2-yl)ketone]	< 25%
CC(C)c1ccccc1-c1ccc2c(c1)[C@H](O)C[C@@]21CCN(C(=O)c2ccc(F)cn2)C1 [Example 25]	70 to 100%
CC(C)c1ccccc1-c1ccc2c(c1)[C@H](O)C[C@]21CCN(C(=O)c2ccc(F)cn2)C1 [Example 26]	< 25%
